Measurements published in PubChem BioAssay (NCI).
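Each compound was tested at five concentrations against cells in 96-well plates for 48 hours. TGI denotes the concentration required for complete inhibition of growth.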

Tests used:
Assay in all cases: NCI anticancer screen, dose series, 48 h
786-0 renal = system: 786-0 renal
A498 renal = system: A498 renal
A549 NSCLC = system: A549 NSCLC
ACHN renal = system: ACHN renal
BT-549 breast = system: BT-549 breast
CAKI-1 renal = system: CAKI-1 renal
CCRF-CEM leukemia = system: CCRF-CEM leukemia
COLO 205 colon = system: COLO 205 colon
DU-145 prostate = system: DU-145 prostate
EKVX NSCLC = system: EKVX NSCLC
HCC-2998 colon = system: HCC-2998 colon
HCT-116 colon = system: HCT-116 colon
HCT-15 colon = system: HCT-15 colon
HL-60(TB) leukemia = system: HL-60(TB) leukemia
HOP-62 NSCLC = system: HOP-62 NSCLC
HOP-92 NSCLC = system: HOP-92 NSCLC
HS 578T breast = system: HS 578T breast
HT29 colon = system: HT29 colon
IGROV1 ovarian = system: IGROV1 ovarian
K-562 leukemia = system: K-562 leukemia
KM12 colon = system: KM12 colon
LOX IMVI melanoma = system: LOX IMVI melanoma
M14 melanoma = system: M14 melanoma
MALME-3M melanoma = system: MALME-3M melanoma
MCF7 breast = system: MCF7 breast
MDA-MB-231 breast = system: MDA-MB-231 breast
MDA-MB-435 = system: MDA-MB-435
MDA-N = system: MDA-N
MOLT-4 leukemia = system: MOLT-4 leukemia
NCI-H226 lung = system: NCI-H226 lung
NCI-H23 lung = system: NCI-H23 lung
NCI-H460 lung = system: NCI-H460 lung
NCI-H522 lung = system: NCI-H522 lung
NCI/ADR-RES ovarian = system: NCI/ADR-RES ovarian
OVCAR-3 ovarian = system: OVCAR-3 ovarian
OVCAR-4 ovarian = system: OVCAR-4 ovarian
OVCAR-5 ovarian = system: OVCAR-5 ovarian
OVCAR-8 ovarian = system: OVCAR-8 ovarian
PC-3 prostate = system: PC-3 prostate
RPMI-8226 leukemia = system: RPMI-8226 leukemia
RXF 393 renal = system: RXF 393 renal
SF-268 CNS = system: SF-268 CNS
SF-295 CNS = system: SF-295 CNS
SF-539 CNS = system: SF-539 CNS
SK-MEL-2 melanoma = system: SK-MEL-2 melanoma
SK-MEL-28 melanoma = system: SK-MEL-28 melanoma
SK-MEL-5 melanoma = system: SK-MEL-5 melanoma
SK-OV-3 ovarian = system: SK-OV-3 ovarian
SN12C renal = system: SN12C renal
SNB-19 CNS = system: SNB-19 CNS
SNB-75 CNS = system: SNB-75 CNS
SR leukemia = system: SR leukemia
SW-620 colon = system: SW-620 colon
T-47D breast = system: T-47D breast
TK-10 renal = system: TK-10 renal
U251 CNS = system: U251 CNS
UACC-257 melanoma = system: UACC-257 melanoma
UACC-62 melanoma = system: UACC-62 melanoma
UO-31 renal = system: UO-31 renal

C1CSCCCSCCCSCCCSCCCSC1
TGI (786-0 renal): > 100 µM
TGI (A498 renal): > 78.1 µM
TGI (A549 NSCLC): > 100 µM
TGI (ACHN renal): > 100 µM
TGI (BT-549 breast): > 88.5 µM
TGI (CAKI-1 renal): 48.8 µM
TGI (CCRF-CEM leukemia): 32.4 µM
TGI (COLO 205 colon): 34.5 µM
TGI (DU-145 prostate): > 100 µM
TGI (EKVX NSCLC): > 100 µM
TGI (HCC-2998 colon): > 100 µM
TGI (HCT-116 colon): > 100 µM
TGI (HCT-15 colon): > 100 µM
TGI (HL-60(TB) leukemia): 36.5 µM
TGI (HOP-62 NSCLC): > 100 µM
TGI (HOP-92 NSCLC): > 93.4 µM
TGI (HS 578T breast): > 100 µM
TGI (HT29 colon): > 63.2 µM
TGI (IGROV1 ovarian): > 87.1 µM
TGI (K-562 leukemia): > 80 µM
TGI (KM12 colon): > 100 µM
TGI (LOX IMVI melanoma): 61.3 µM
TGI (M14 melanoma): > 100 µM
TGI (MALME-3M melanoma): > 100 µM
TGI (MCF7 breast): > 76.7 µM
TGI (MDA-MB-231 breast): > 88.4 µM
TGI (MDA-MB-435): > 100 µM
TGI (MDA-N): > 100 µM
TGI (MOLT-4 leukemia): 38.1 µM
TGI (NCI-H226 lung): > 77.2 µM
TGI (NCI-H23 lung): > 100 µM
TGI (NCI-H460 lung): > 51.4 µM
TGI (NCI-H522 lung): 81.2 µM
TGI (NCI/ADR-RES ovarian): > 100 µM
TGI (OVCAR-3 ovarian): > 100 µM
TGI (OVCAR-4 ovarian): > 100 µM
TGI (OVCAR-5 ovarian): > 100 µM
TGI (OVCAR-8 ovarian): > 100 µM
TGI (PC-3 prostate): > 90.2 µM
TGI (RPMI-8226 leukemia): 36.9 µM
TGI (RXF 393 renal): > 100 µM
TGI (SF-268 CNS): > 100 µM
TGI (SF-295 CNS): > 100 µM
TGI (SF-539 CNS): > 100 µM
TGI (SK-MEL-2 melanoma): > 95.4 µM
TGI (SK-MEL-28 melanoma): > 100 µM
TGI (SK-MEL-5 melanoma): 28.3 µM
TGI (SK-OV-3 ovarian): > 100 µM
TGI (SN12C renal): > 100 µM
TGI (SNB-19 CNS): > 100 µM
TGI (SNB-75 CNS): > 93.2 µM
TGI (SR leukemia): 29.5 µM
TGI (SW-620 colon): > 100 µM
TGI (T-47D breast): > 88.6 µM
TGI (TK-10 renal): > 100 µM
TGI (U251 CNS): > 100 µM
TGI (UACC-257 melanoma): 97.2 µM
TGI (UACC-62 melanoma): > 100 µM
TGI (UO-31 renal): > 100 µM

COP(=O)(OC)/C(=C/c1c[nH]c2ccccc12)C(=O)O
TGI (786-0 renal): > 100 µM
TGI (A498 renal): > 100 µM
TGI (A549 NSCLC): > 100 µM
TGI (ACHN renal): > 100 µM
TGI (BT-549 breast): > 100 µM
TGI (CAKI-1 renal): > 100 µM
TGI (CCRF-CEM leukemia): > 100 µM
TGI (COLO 205 colon): > 100 µM
TGI (DU-145 prostate): > 100 µM
TGI (EKVX NSCLC): > 100 µM
TGI (HCC-2998 colon): > 100 µM
TGI (HCT-116 colon): > 100 µM
TGI (HCT-15 colon): > 100 µM
TGI (HL-60(TB) leukemia): > 100 µM
TGI (HOP-62 NSCLC): > 100 µM
TGI (HOP-92 NSCLC): > 100 µM
TGI (HS 578T breast): > 100 µM
TGI (HT29 colon): > 100 µM
TGI (IGROV1 ovarian): > 100 µM
TGI (K-562 leukemia): > 100 µM
TGI (KM12 colon): > 100 µM
TGI (LOX IMVI melanoma): > 100 µM
TGI (M14 melanoma): > 100 µM
TGI (MALME-3M melanoma): > 100 µM
TGI (MCF7 breast): > 100 µM
TGI (MDA-MB-231 breast): > 100 µM
TGI (MDA-MB-435): > 100 µM
TGI (MDA-N): > 100 µM
TGI (MOLT-4 leukemia): > 100 µM
TGI (NCI-H226 lung): > 100 µM
TGI (NCI-H23 lung): > 100 µM
TGI (NCI-H460 lung): > 100 µM
TGI (NCI-H522 lung): > 100 µM
TGI (NCI/ADR-RES ovarian): > 100 µM
TGI (OVCAR-3 ovarian): > 100 µM
TGI (OVCAR-4 ovarian): > 100 µM
TGI (OVCAR-5 ovarian): > 100 µM
TGI (OVCAR-8 ovarian): > 100 µM
TGI (PC-3 prostate): > 100 µM
TGI (RPMI-8226 leukemia): > 100 µM
TGI (RXF 393 renal): > 100 µM
TGI (SF-295 CNS): > 100 µM
TGI (SF-539 CNS): > 100 µM
TGI (SK-MEL-2 melanoma): > 100 µM
TGI (SK-MEL-28 melanoma): > 100 µM
TGI (SK-MEL-5 melanoma): > 100 µM
TGI (SK-OV-3 ovarian): > 100 µM
TGI (SN12C renal): > 100 µM
TGI (SNB-19 CNS): > 100 µM
TGI (SNB-75 CNS): > 100 µM
TGI (SR leukemia): > 100 µM
TGI (SW-620 colon): > 100 µM
TGI (T-47D breast): > 100 µM
TGI (TK-10 renal): > 100 µM
TGI (U251 CNS): > 100 µM
TGI (UACC-62 melanoma): > 100 µM
TGI (UO-31 renal): > 100 µM

Cc1ccc([N+](=O)[O-])cc1S(=O)(=O)Nc1ccc(C(=O)/C=C/c2cccs2)cc1
TGI (786-0 renal): 37.4 µM
TGI (A498 renal): 45.1 µM
TGI (A549 NSCLC): > 100 µM
TGI (ACHN renal): 87.6 µM
TGI (BT-549 breast): 40.1 µM
TGI (CAKI-1 renal): 38.8 µM
TGI (CCRF-CEM leukemia): > 100 µM
TGI (COLO 205 colon): 95.9 µM
TGI (DU-145 prostate): 54.2 µM
TGI (EKVX NSCLC): 51.7 µM
TGI (HCC-2998 colon): 34.6 µM
TGI (HCT-116 colon): 35.8 µM
TGI (HCT-15 colon): 64.3 µM
TGI (HL-60(TB) leukemia): 62.9 µM
TGI (HOP-62 NSCLC): 48 µM
TGI (HOP-92 NSCLC): > 100 µM
TGI (HS 578T breast): > 100 µM
TGI (HT29 colon): 41.6 µM
TGI (IGROV1 ovarian): > 100 µM
TGI (K-562 leukemia): > 100 µM
TGI (KM12 colon): 32.5 µM
TGI (LOX IMVI melanoma): 45.2 µM
TGI (M14 melanoma): 45.3 µM
TGI (MALME-3M melanoma): > 100 µM
TGI (MCF7 breast): 39.2 µM
TGI (MDA-MB-231 breast): 31.1 µM
TGI (MDA-MB-435): 32.7 µM
TGI (MDA-N): 73 µM
TGI (MOLT-4 leukemia): 64.1 µM
TGI (NCI-H226 lung): 71.5 µM
TGI (NCI-H23 lung): 46.1 µM
TGI (NCI-H460 lung): > 100 µM
TGI (NCI-H522 lung): 50.8 µM
TGI (NCI/ADR-RES ovarian): 59.3 µM
TGI (OVCAR-3 ovarian): 39.2 µM
TGI (OVCAR-4 ovarian): 54.3 µM
TGI (OVCAR-5 ovarian): > 100 µM
TGI (OVCAR-8 ovarian): > 100 µM
TGI (PC-3 prostate): 43.8 µM
TGI (RPMI-8226 leukemia): > 100 µM
TGI (RXF 393 renal): 32.9 µM
TGI (SF-268 CNS): > 100 µM
TGI (SF-295 CNS): > 100 µM
TGI (SF-539 CNS): > 100 µM
TGI (SK-MEL-2 melanoma): 41.8 µM
TGI (SK-MEL-28 melanoma): 58.7 µM
TGI (SK-MEL-5 melanoma): 33.1 µM
TGI (SK-OV-3 ovarian): > 100 µM
TGI (SN12C renal): 74.8 µM
TGI (SNB-19 CNS): 55.9 µM
TGI (SNB-75 CNS): 36.9 µM
TGI (SR leukemia): 68.9 µM
TGI (SW-620 colon): 50.1 µM
TGI (T-47D breast): 91.7 µM
TGI (TK-10 renal): > 100 µM
TGI (UACC-257 melanoma): 46.6 µM
TGI (UACC-62 melanoma): 32.1 µM
TGI (UO-31 renal): 40.4 µM
